Test results as given in patent US20040126359A1, “Hedgehog” (priority 2001, published 2004).

What was measured:
CD4+ T-cells [1] = test: T-cell proliferation assay (3H-TdR incorporation); type: cell-based, mouse
Protocol: Single cell suspensions from pooled C57BL/6 mouse spleens were applied to negative selection CD4^+ T-cell columns (R&D systems Europe Ltd, Abingdon, UK) as per manufacturers instructions. Purity was checked using FACS staining with an anti-CD4^FITC antibody and this ranged between 88-93%.
CD4^+ T-cells were cultured in RPMI 1640 medium (Life Technologies, Paisley, UK) supplemented with 10% FCS (Life Technologies), 2 mM L-glutamine, (Sigma, Dorset, UK), 20 μg/ml penicillin/streptomycin (Life Technologies) and […] 2-mercaptoethanol (Sigma). Anti-CD3/28 antibody activation was carried out at 2 concentrations, namely ‘sub-optimal’ (anti-CD3 at 0.25 μg/ml and anti-CD28 at 0.1 μg/ml) and ‘optimal’ (anti-CD3 at 1 μg/ml and anti-CD28 at 5 μg/ml). Tissue culture plates (Corning Inc., NY, USA) were coated with the anti-CD3 antibody for 90 min at 37° C. prior to addition of the CD4^+ T-cells. Recombinant mouse Shh amino-terminal peptide (R&D systems Europe Ltd, Abingdon, UK) was added into cultures at a concentration of 500 ng/ml. 5E1 antibody was used at either 20 μg/ml or 50 μg/ml and the isotype control was used at 20 μg/ml. The concentrations used were based on results of dose response curves (data not shown).
The CD4^+ T-cells were cultured as above in 96-well plates with and without addition of exogenous Shh or 5E1. They were pulsed after 48 hr of anti-CD3/28 activation with 20 μl of ^3H-TdR (50 μCi/ml) (Amersham), harvested at 72 hr and read on a betaplate scintillation counter (Wallac UK, Milton Keynes, UK).
Purified peripheral CD4^+ T-cells were cultured with and without the addition of the biologically active amino terminal Shh peptide. An initial titration curve established that 500 ng/ml was the optimal dose of the Shh peptide to enhance proliferation of peripheral CD4^+ T-cells (data not shown), and this concentration was used in all subsequent experiments. Shh was added to CD4^+ T-cells that were resting, maximally stimulated with anti-CD3 (1 μg/ml) and anti-CD28 (5 μg/ml) antibodies or sub-optimally activated with anti-CD3 (0.25 μg/ml) and anti-CD28 (0.1 μg/ml).

CD4+ T-cells [2] = test: Real time PCR of Shh, ptc, Gli1 and bcl-2 transcripts in sub-optimally activated CD4+ T-cells; type: cell-based, mouse
Protocol: CD4^+ T-cells were cultured as above in 48 well plates with and without addition of exogenous Shh or 5E1. At various time points (24 hr, 48 hr, 72 hr) post-activation, the CD4^+ T-cells were spun at 300 g for 7 mins then resuspended in lysis buffer provided as part of the RNeasy kit used for the RNA isolation (Qiagen Ltd, Crawley, UK). Any contaminating DNA was then digested by treating the RNA with DnaseI (Life Technologies) according to the manufacturer's instructions. In order to check that no contaminating DNA remained, a PCR was carried out using genomic β-actin primers (forward primer 5′-CCACCAACTGGGACACATG-3′ (SEQ ID NO:10) and reverse primer 5′-[…]-3′ (SEQ ID NO:11)) (MWG-Biotech AG). The PCR program was as follows: 35 cycles of 30 secs at 94° C., 1 min at 58° C., 2 mins at 72° C. followed by a 5 min 72° C. extension then 4° C. hold. This was carried out on a PTC-200 Peltier thermal cycler (MJ Research Inc., Massachusetts, USA).
Unless otherwise stated all materials for real time PCR were supplied by Applied Biosytems UK, Cheshire, UK. 400 ng of RNA was reverse transcribed using the Multiscribe RT kit. Samples were incubated for 10 min at 25° C., 40mins at 48° C. then 5 min at 95° C. to allow the reverse transcription to take place. cDNA samples were then diluted 1:5 in nuclease-free water (Promega). The PCR step was carried out using Taqman Universal PCR Mastermix, a primer/probe mix specific to the gene of interest and a primer/probe mix specific to 18s rRNA control reagent. The following primer/probe sequences were used:
These probes were all labelled with the fluorescent dye fam (6-carboxy-fluorescein). The primer/probe mix for 18S was supplied by Applied Biosystems which was labelled with the fluorescent dye vic™. Each cDNA sample was run in duplicate 25 μl volumes on a capped 96-well optical reaction plate. The plate was run in the ABI Prism 7700 sequence detector using SDS software. The PCR conditions were as follows: 50° C. for 2 min, 95° C. for 10 min then 40 cycles of 15 sec at 95° C. and 1 min at 60° C. The software then analysed the data and output a pair of ‘ct’ values for each sample. ‘Ct’ is the number of cycles needed to result in a signal crossing a set threshold. Each sample yielded two ct values, one for the gene of interest and one for the 18S house keeping control. The ct values were then transported to a Microsoft Excel spreadsheet and analysed to give a value representing the relative mRNA levels present for the gene of interest linearly as per the manufacturers instructions.
In order to analyse the mechanisms of Shh amplification of TCR mediated activation in CD4^+ T-cells, the kinetics of expression of components of the Shh signalling pathway and bcl-2 were analysed in activated CD4^+ T-cells in the presence and absence of exogenous Shh. CD4^+ T-cell cultures were set up as before, sub-optimally activated with anti-CD3/CD28 and Shh was added at t=0. RNA was extracted at 24, 48 and 72 hr post-activation. It has been reported that a 2× or greater increase in the transcription of any gene on at least 2 occasions is considered to be significant (Chtanova et al and Granucci et al).

CD4+ T-cells [3] = test: Two-colour FACS analysis of CD69 and CD25 expression; type: cell-based; details: CD4+ T-cells activated 72 hours with anti-CD3 and anti-CD28, Shh 100 ng/ml
human CD4 T-cells = test: Proliferation of human CD4 T-cells cultured with Shh N-terminal active peptide (3H thymidine); type: cell-based; details: activated CD4+ T-cells; dose dependent
human CD8 T-cells = test: Proliferation of human CD8 T-cells cultured with Shh N-terminal active peptide (3H thymidine); type: cell-based; details: activated CD8+ T-cells; dose dependent
[4] = system: mouse spleen cells and purified CD4+ T-cells; test: Survival in culture by Trypan blue staining; type: cell-based; details: no activation; Shh 10 and 100 ng/ml; 4 day time frame
Protocol: Survival was measured by Trypan blue staining of dead and alive cells in culture;
Cells cultured in medium without Shh were used as controls;

[5] = Shh peptide at t=0, 24, 48, 72 hr

Shh peptide: Recombinant mouse Shh amino-terminal peptide (R&D systems); biologically active N-terminal Sonic hedgehog fragment
optimal dose to enhance proliferation of peripheral CD4+ T-cells (CD4+ T-cells [1]; initial titration curve (data not shown)): 500 ng/mL | level of proliferation (3H-TdR incorporation) (CD4+ T-cells [1]; maximally stimulated (anti-CD3 1 μg/ml, anti-CD28 5 μg/ml), Shh peptide 500 ng/ml added at t=-24 hr or t=0): no significant difference | degree of proliferation (CD4+ T-cells [1]; resting CD4+ T-cells, Shh peptide 500 ng/ml): No significant difference | increase in proliferation, range (CD4+ T-cells [1]; sub-optimal activation, Shh peptide 500 ng/ml 24 hr prior to activation): 16-63% | increase in proliferation, mean (CD4+ T-cells [1]; sub-optimal activation, Shh peptide 500 ng/ml 24 hr prior to activation, n=3, p<0.04): 46% | increase in CD4+ T-cell proliferation, mean (CD4+ T-cells [1]; sub-optimal activation, Shh peptide 500 ng/ml at t=0, 72 hr, p<0.01): 101.6% | increase in CD4+ T-cell proliferation, range (CD4+ T-cells [1]; sub-optimal anti-CD3 0.25 μg/ml, anti-CD28 0.1 μg/ml, Shh peptide 500 ng/ml at t=0, 72 hr): 76.2-128% | level of transcription of Gli1 vs media only activated cultures (CD4+ T-cells [2]; [5]): No difference | level of transcription of ptc vs media only activated cultures (CD4+ T-cells [2]; [5]): No difference | transcription of Shh vs media only activated cultures (CD4+ T-cells [2]; Shh peptide at t=0, 24 hr): significantly reduced | transcription of bcl-2 vs media only activated cultures (CD4+ T-cells [2]; Shh peptide at t=0, 72 hr): significantly increased | Bcl-2 transcripts, time course normalised to 24 hr sample (CD4+ T-cells [2]; in presence of exogenous Shh): increased at 48 hr and at 72 hr | Gli1 transcription, time course normalised to 24 hr sample (CD4+ T-cells [2]; in presence of exogenous Shh): increased at 48 hr and was maintained at 72 hr | Shh transcription, time course normalised to 24 hr sample (CD4+ T-cells [2]; in presence of exogenous Shh): increased both at 48 hr and 72 hr | ptc transcription, time course normalised to 24 hr sample (CD4+ T-cells [2]; in presence of exogenous Shh, 72 hr): marginally higher | CD25 expression in CD3 positive T-cells (CD4+ T-cells [3]; activated only 31.64%): 80.46% | CD69 expression in CD3 positive T-cells (CD4+ T-cells [3]; activated only 33.87%): 70.57% | incorporation of 3H-thymidine (human CD4 T-cells): significantly enhances | incorporation of 3H-thymidine (human CD8 T-cells): significantly enhances | survival in culture [4]: enhances their survival
